{"source": "patent US20090281025A1", "about": "“INHIBITION OF TUMOR GROWTH AND METASTASIS BY ATF2-DERIVED PEPTIDES” (Mount Sinai School Of Medicine of New York University, priority 2004, published 2009)", "key": {"[1]": {"test_system": "SW1 tumors", "experiment": "cDNA microarray gene expression profiling of SW1 tumors", "format": "in vivo, mouse", "from_the_text": "FIGS. 8A and 8B show gene profiling analysis of SW1 tumors expressing the ATF2^51-100 peptide. Tumors generated, in the absence or presence of a peptide, were used as source of mRNA for array analysis of 10K mouse genes (see Example 5). […] In all cases, the data represent analyses carried out 4 times from 4 different pools of tumors.\nTo elucidate the molecular pathways affected by expression of the ATF2^51-100 peptide, we used cDNA microarray analysis to compare the RNA expression profiles of SW1 tumors that express this peptide or a control vector (FIG. 8A). The 10k mouse Gem 2 gene set (Incyte Genomics Inc, Palo Alto, Calif.) was printed at the NCI on poly-L-lysine-coated glass using a Biorobotics TASII arrayer (Cambridge, England). All protocols for manufacturing and hybridization of microarrays are posted on the NCI web site (see, e.g., nciarray.nci.nih.gov). Approximately 20 μg of total RNA were used in the reverse transcription reaction to directly label the probe with Cy-5 dUTP or Cy-3 dUTP (Amersham). Hybridizations were performed at 65° C. for 12-18 h in a hybridization volume of 35 μL. The hybridized arrays were scanned using an Axon GenePix 4000 scanner (Union City, Calif.) and fluorescence data were collected using the GenePix software.\nmRNA was prepared from a pool of 4 tumors obtained from two different experiments. In both cases, tumors were excised 2 weeks after subcutaneous injection of cells. Because the fluorescently labeled Cy dyes may incorporate into the reverse-transcribed cDNA with different efficiencies, RNA isolated from both cell types was always labeled with both combinations of Cy dyes. […] SW1 vector control cells were labeled with Cy-3 (F532) and the SW1-ATF 51-100 cells were labeled with Cy-5 (F635)."}, "[2]": {"test_system": "TRE-Luc", "experiment": "TRE-Luc luciferase reporter assay in SW1 cells", "format": "cell-based, mouse", "settings": "SW1 cells expressing peptide, luciferase after 18 hours", "protocol": "SW1 cells constitutively expressing the indicated ATF2 peptides were transfected with either TRE-Luc (FIG. 5A) or with Jun2-Luc (FIG. 5B), and proteins were prepared for analysis of luciferase activity after 18 hours. Analysis was performed in duplicate, and the data reflect three independent experiments. SW1 cells expressing the ATF2 peptides were analyzed to establish the degree of spontaneous (basal) apoptosis as well as apoptosis 24 hours following treatment with the chemotherapeutic drug UCN-01 (FIG. 5C). The data represent triplicate analysis reproduced three times.\nAlteration of ATF2 Transcriptional Activity. Assessed next was whether the short peptide caused any change in transcriptional activity mediated by ATF2 and its heterodimeric partners, using the TRE and Jun2 promoter sequences linked to the Luciferase marker gene. These reporter constructs (0.3 μg) were cotransfected with the respective expression vectors into melanoma cells (5×10^5) using Lipofectamine (Invitrogen). Luciferase activity was measured using the Luciferase assay system (Promega)."}, "[3]": {"test_system": "SW-1 cells", "experiment": "Caspase and PARP cleavage immunoblot in SW-1 cells", "format": "cell-based, mouse", "settings": "peptides by transfection, UCN-01 (5 μm) 24 hours", "protocol": "Human melanoma cells LU1205 were transfected with the nucleic acid molecules that encode either ATF2^51-100 peptide or ATF2^51-60 peptide. Twenty-four hours after transfection, cells were treated with of UCN-01 (5 μm) for 24 hours. Immunoblotting analysis was performed using caspase 9 and PARP antibodies, and β-actin was used as a loading control (FIG. 6A). The same experiment was performed in SW-1 cells (FIG. 6B). Stars point to the position of the uncleaved form whereas arrows point to the cleaved products.\nEffect on Apoptosis. Assessed next was the degree of apoptosis in SW1 cells under normal growth (spontaneous) as well as following treatment with chemotherapeutic drugs. Cells were analyzed to detect spontaneous (basal) or induced apoptosis [following treatment with the kinase inhibitor UCN-01 (kindly provided by NCI repository) for 36 hours]. Apoptosis was measured by using FACS (Ivanov et al., Mol. Cell, 2001, 7:517-28) to quantify the percentage of hypodiploid nuclei undergoing DNA fragmentation. Nucleation as a marker of apoptosis was monitored via DAPI staining of cells at indicated time points after their treatment. Caspase activity was monitored by immunoblots using antibodies to caspase 9 (Santa Cruz). PARP cleavage was monitored by corresponding antibodies (PharMingen)."}, "[4]": {"settings": "tumors expressing peptide vs control vector"}}, "note": "Values joined by “and” are separate entries in the source; they are usually repeats but may differ in a detail not shown here. Equal values may be shown once."}
{"substance": "ATF2^51-100: amino-terminal peptide of ATF2, amino acid residue 51 to 100 (about a 50 amino acid peptide), expressed in tumor cells (MTLKFGPARNDSVIVADQTPTPTRFLKNCEEVGLFNELASPFENEFKKAS; UniProt P15336 51-100, looked up, fragment)", "values": [{"measurement": "Ratio ATFp2-Cy5 vs parental control-Cy3: Mtap6 (microtubule-associated protein 6)", "setting": "[1]; down regulated, IMAGE: 1430217, hybridizations #1-#4, listed as ATFp2", "value": "0.3697 and 0.3710 and 0.5261 and 0.7243"}, {"measurement": "expression of Fas-associated genes", "setting": "[1]; [4]", "value": "down-regulation"}, {"measurement": "expression of growth-associated genes (epidermal growth factor, hepatoma-derived growth factor, insulin-like growth factor) and interferon-associated genes", "setting": "[1]; [4]", "value": "consistent down-regulation"}, {"measurement": "expression of tumor necrosis factor-related genes", "setting": "[1]; [4]", "value": "strongly upregulated"}, {"measurement": "Ratio ATFp2-Cy5 vs parental control-Cy3: Kifap3 (kinesin-associated protein 3)", "setting": "[1]; upregulated, IMAGE: 331395, hybridizations #1-#4, listed as ATFp2", "value": "2.1192 and 2.1268 and 2.9811 and 3.9220"}, {"measurement": "Ratio ATFp2-Cy5 vs parental control-Cy3: Hbb-b1 (hemoglobin, beta adult major chain)", "setting": "[1]; upregulated, IMAGE: 332935, hybridizations #1-#4, listed as ATFp2", "value": "3.1997 and 3.2112 and 2.7725 and 3.6146"}, {"measurement": "Ratio ATFp2-Cy5 vs parental control-Cy3: Hbb-b1 (hemoglobin, beta adult major chain)", "setting": "[1]; upregulated, IMAGE: 518979, hybridizations #1-#4, listed as ATFp2", "value": "2.8994 and 2.9099 and 2.4766 and 2.5621"}, {"measurement": "Ratio ATFp2-Cy5 vs parental control-Cy3: D0H4S114 (DNA segment, human D4S114)", "setting": "[1]; upregulated, IMAGE: 535754, hybridizations #1-#4, listed as ATFp2", "value": "3.0625 and 3.0736 and 4.2117 and 3.5432"}, {"measurement": "Ratio ATFp2-Cy5 vs parental control-Cy3: Scyb13 (small inducible cytokine subfamily B (Cys-X-Cys), member 13)", "setting": "[1]; upregulated, IMAGE: 596683, hybridizations #1-#4, listed as ATFp2", "value": "3.6935 and 3.7069 and 4.4104 and 4.1619"}, {"measurement": "Ratio ATFp2-Cy5 vs parental control-Cy3: C85356 (expressed sequence C85356)", "setting": "[1]; upregulated, IMAGE: 776163, hybridizations #1-#4, listed as ATFp2", "value": "6.2407 and 6.2633 and 5.4673 and 4.7632"}, {"measurement": "Ratio ATFp2-Cy5 vs parental control-Cy3: ESTs", "setting": "[1]; upregulated, IMAGE: 809168, hybridizations #1-#4, listed as ATFp2", "value": "2.6457 and 2.6552 and 2.6858 and 2.3889"}, {"measurement": "Ratio ATFp2-Cy5 vs parental control-Cy3: Mme (membrane metallo endopeptidase)", "setting": "[1]; upregulated, IMAGE: 849871, hybridizations #1-#4, listed as ATFp2", "value": "4.8477 and 4.8652 and 4.8096 and 4.5247"}, {"measurement": "Ratio ATFp2-Cy5 vs parental control-Cy3: Ogn (osteoglycin)", "setting": "[1]; upregulated, IMAGE: 902951, hybridizations #1-#4, listed as ATFp2", "value": "2.7606 and 2.7705 and 2.7398 and 2.3263"}, {"measurement": "Ratio ATFp2-Cy5 vs parental control-Cy3: RIKEN cDNA 1110068L01 gene", "setting": "[1]; upregulated, IMAGE: 960604, hybridizations #1-#4, listed as ATFp2", "value": "2.7162 and 2.7260 and 3.6427 and 3.9752"}, {"measurement": "Ratio ATFp2-Cy5 vs parental control-Cy3: Akr1c13 (aldo-keto reductase family 1, member C13)", "setting": "[1]; upregulated, IMAGE: 1052178, hybridizations #1-#4, listed as ATFp2", "value": "3.6319 and 3.6450 and 3.4859 and 3.4284"}, {"measurement": "Ratio ATFp2-Cy5 vs parental control-Cy3: Tna (tetranectin (plasminogen-binding protein))", "setting": "[1]; upregulated, IMAGE: 1068748, hybridizations #1-#4, listed as ATFp2", "value": "5.0430 and 5.0612 and 4.9219 and 4.6123"}, {"measurement": "Ratio ATFp2-Cy5 vs parental control-Cy3: Top1 (topoisomerase (DNA) I)", "setting": "[1]; upregulated, IMAGE: 1107479, hybridizations #1-#4, listed as ATFp2", "value": "2.6799 and 2.6896 and 3.4635 and 3.3665"}, {"measurement": "Ratio ATFp2-Cy5 vs parental control-Cy3: Il1b (interleukin 1 beta)", "setting": "[1]; upregulated, IMAGE: 1139544, hybridizations #1-#4, listed as ATFp2", "value": "2.5423 and 2.5514 and 3.4806 and 3.3033"}, {"measurement": "Ratio ATFp2-Cy5 vs parental control-Cy3: Igfbp2 (insulin-like growth factor binding protein 2)", "setting": "[1]; upregulated, IMAGE: 1277469, hybridizations #1-#4, listed as ATFp2", "value": "3.2649 and 3.2767 and 3.3268 and 3.0043"}, {"measurement": "Ratio ATFp2-Cy5 vs parental control-Cy3: Igj (immunoglobulin joining chain)", "setting": "[1]; upregulated, IMAGE: 1277614, hybridizations #1-#4, listed as ATFp2", "value": "3.0715 and 3.0826 and 3.4986 and 4.0870"}, {"measurement": "Ratio ATFp2-Cy5 vs parental control-Cy3: Sp3 (trans-acting transcription factor 3)", "setting": "[1]; upregulated, IMAGE: 1399769, hybridizations #1-#4, listed as ATFp2", "value": "2.3816 and 2.3902 and 3.1712 and 3.6075"}, {"measurement": "Ratio ATFp2-Cy5 vs parental control-Cy3: Efemp1 (epidermal growth factor-containing fibulin)", "setting": "[1]; upregulated, IMAGE: 1480170, hybridizations #1-#4, listed as ATFp2", "value": "2.6354 and 2.6449 and 2.6270 and 2.3980"}, {"measurement": "Ratio ATFp2-Cy5 vs parental control-Cy3: Lum (lumican)", "setting": "[1]; upregulated, IMAGE: 2101997, hybridizations #1-#4, listed as ATFp2", "value": "2.5956 and 2.6050 and 2.6414 and 2.8732"}, {"measurement": "TRE-Luc activity", "setting": "[2]", "value": "marked increase"}, {"measurement": "activation of caspase 9 (cleavage fragments)", "setting": "[3]", "value": "activation of caspase 9 even prior to treatment with UCN-01"}]}
